Measurements as given in patent US7407961B2, “Pyrazine derivatives and pharmaceutical use thereof” (Astellas Pharma Inc., priority 2003, dated 2008).
Where a name gives a salt, the structure may show the parent alone.

melting point | SMILES
222.6 °C | COc1ccccc1-c1nc(N)c(C#N)nc1-c1ccc(=O)n(C(C)C)c1 (hydrate or solvate) [Example 36, 3-Amino-6-(1-isopropyl-6-oxo-1,6-dihydro-3-pyridyl)-5-(2-methoxyphenyl)-2-pyrazinecarbonitrile]
192.3 °C | COc1cccc(-c2nc(N)c(C#N)nc2-c2ccc(=O)n(C(C)C)c2)c1 (hydrate or solvate) [Example 37, 3-Amino-6-(1-isopropyl-6-oxo-1,6-dihydro-3-pyridyl)-5-(3-methoxyphenyl)-2-pyrazinecarbonitrile]
205.4 °C | CC(C)n1cc(-c2nc(C#N)c(N)nc2-c2ccccc2)ccc1=O (as salt: Na) (hydrate or solvate) [Example 32, 3-Amino-6-(1-isopropyl-6-oxo-1,6-dihydro-3-pyridyl)-5-phenyl-2-pyrazinecarbonitrile]
243.9 °C | COc1ccc(-c2nc(N)c(C#N)nc2-c2ccc(=O)n(C(C)C)c2)cc1 (hydrate or solvate) [Example 38, 3-Amino-6-(1-isopropyl-6-oxo-1,6-dihydro-3-pyridyl)-5-(4-methoxyphenyl)-2-pyrazinecarbonitrile]
225.8 °C | CC(C)n1cc(-c2nc(C(N)=O)c(N)nc2-c2ccc(F)c(F)c2)ccc1=O (hydrate or solvate) [Example 29, 3-Amino-5-(3,4-difluorophenyl)-6-(1-isopropyl-6-oxo-1,6-dihydro-3-pyridyl)-2-pyrazinecarboxamide]
180 °C | CC(C)n1cc(-c2nc(C#N)c(N)nc2-c2ccc(F)c(F)c2)ccc1=O (hydrate or solvate) [Example 39, 3-Amino-5-(3,4-difluorophenyl)-6-(1-isopropyl-6-oxo-1,6-dihydro-3-pyridyl)-2-pyrazinecarbonitrile]
222.2 °C | CC(C)n1cc(-c2nc(C(=O)O)c(N)nc2-c2ccc(F)cc2)ccc1=O (hydrate or solvate) [Example 40, 3-amino-5-(4-fluorophenyl)-6-(1-isopropyl-6-oxo-1,6-dihydro-3-pyridyl)-2-pyrazinecarboxylic acid]
192.3 °C | COc1cccc(-c2nc(N)c(C(N)=O)nc2-c2ccc(=O)n(C(C)C)c2)c1 (hydrate or solvate) [Example 24, 3-Amino-6-(1-isopropyl-6-oxo-1,6-dihydro-3-pyridyl)-5-(3-methoxyphenyl)-2-pyrazinecarboxamide]
210.6 °C | CC(C)n1cc(-c2nc(C#N)c(N)nc2-c2cccc(F)c2)ccc1=O (hydrate or solvate) [Example 34, 3-Amino-5-(3-fluorophenyl)-6-(1-isopropyl-6-oxo-1,6-dihydro-3-pyridyl)-2-pyrazinecarbonitrile]
243.9 °C | COc1ccc(-c2nc(N)c(C(N)=O)nc2-c2ccc(=O)n(C(C)C)c2)cc1 (hydrate or solvate) [Example 25, 3-Amino-6-(1-isopropyl-6-oxo-1,6-dihydro-3-pyridyl)-5-(4-methoxyphenyl)-2-pyrazinecarboxamide]
210.6 °C | CC(C)n1cc(-c2nc(C#N)c(N)nc2-c2ccccc2F)ccc1=O (hydrate or solvate) [Example 33, 3-Amino-5-(2-fluorophenyl)-6-(1-isopropyl-6-oxo-1,6-dihydro-3-pyridyl)-2-pyrazinecarbonitrile]
265.5 °C | CC(C)n1cc(-c2nc(C(N)=O)c(N)nc2-c2cccc(OC(F)(F)F)c2)ccc1=O (hydrate or solvate) [Example 27, 3-Amino-6-(1-isopropyl-6-oxo-1,6-dihydro-3-pyridyl)-5-[3-(trifluoromethoxy)phenyl]-2-pyrazinecarboxamide]
206.5 °C | CC(C)n1cc(-c2nc(C(N)=O)c(N)nc2-c2ccccc2OC(F)(F)F)ccc1=O (hydrate or solvate) [Example 26, 3-Amino-6-(1-isopropyl-6-oxo-1,6-dihydro-3-pyridyl)-5-[2-(trifluoromethoxy)phenyl]-2-pyrazinecarboxamide]
292 °C | CC(C)n1cc(-c2nc(C(N)=O)c(N)nc2-c2ccc(C#N)cc2)ccc1=O (hydrate or solvate) [Example 31, 3-Amino-5-(4-cyanophenyl)-6-(1-isopropyl-6-oxo-1,6-dihydro-3-pyridyl)-2-pyrazinecarboxamide]
207 °C | CC(C)n1cc(-c2nc(C#N)c(N)nc2-c2ccc(F)cc2)ccc1=O (hydrate or solvate) [Example 35, 3-Amino-5-(4-fluorophenyl)-6-(1-isopropyl-6-oxo-1,6-dihydro-3-pyridyl)-2-pyrazinecarbonitrile]
264 °C | CC(C)n1cc(-c2nc(C(N)=O)c(N)nc2-c2ccc(OC(F)(F)F)cc2)ccc1=O (hydrate or solvate) [Example 28, 3-Amino-6-(1-isopropyl-6-oxo-1,6-dihydro-3-pyridyl)-5-[4-(trifluoromethoxy)phenyl]-2-pyrazinecarboxamide]

Further lines, the molecule ahead of its results:

SMILES | melting point
Cn1cc(-c2nc(C(N)=O)c(N)nc2-c2ccccc2)ccc1=O [Example 3, 3-amino-6-(1-methyl-6-oxo-1,6-dihydro-3-pyridyl)-5-phenyl-2-pyrazinecarboxamide] | > 250 °C
CCCn1cc(-c2nc(C#N)c(N)nc2-c2ccccc2)ccc1=O [Example 13, 3-Amino-6-(6-oxo-1-propyl-1,6-dihydro-3-pyridyl)-5-phenyl-2-pyrazinecarbonitrile] | 180 to 183 °C
N#Cc1nc(-c2ccc(=O)[nH]c2)c(-c2ccccc2)nc1N (hydrate or solvate) [Example 10, 3-amino-6-(6-oxo-1,6-dihydro-3-pyridyl)-5-phenyl-2-pyrazinecarbonitrile] | 243 to 248 °C
CC(C)n1cc(-c2nc(C(N)=O)c(N)nc2-c2cccc(F)c2)ccc1=O (hydrate or solvate) [Example 18, 3-Amino-5-(3-fluorophenyl)-6-(1-isopropyl-6-oxo-1,6-dihydro-3-pyridyl)-2-pyrazinecarboxamide] | 258.8 °C
COc1ccccc1-c1nc(N)c(C(N)=O)nc1-c1ccc(=O)n(C(C)C)c1 (hydrate or solvate) [Example 23, 3-Amino-6-(1-isopropyl-6-oxo-1,6-dihydro-3-pyridyl)-5-(2-methoxyphenyl)-2-pyrazinecarboxamide] | 263.1 °C
CC(C)n1cc(-c2nc(C#N)c(N)nc2-c2ccccc2)ccc1=O [Example 14, 3-Amino-6-(1-isopropyl-6-oxo-1,6-dihydro-3-pyridyl)-5-phenyl-2-pyrazinecarbonitrile] | 204.5 °C
CC(C)n1cc(-c2nc(C(N)=O)c(N)nc2-c2ccc(Cl)cc2)ccc1=O (hydrate or solvate) [Example 22, 3-Amino-5-(4-chlorophenyl)-6-(1-isopropyl-6-oxo-1,6-dihydro-3-pyridyl)-2-pyrazinecarboxamide] | 246.2 °C
Cn1cc(-c2nc(C#N)c(N)nc2-c2ccccc2)ccc1=O (as salt: Na) [Example 11, 3-amino-6-(1-methyl-6-oxo-1,6-dihydro-3-pyridyl)-5-phenyl-2-pyrazinecarbonitrile] | > 250 °C
CC(C)n1cc(-c2nc(C(N)=O)c(N)nc2-c2ccccc2F)ccc1=O (hydrate or solvate) [Example 17, 3-Amino-5-(2-fluorophenyl)-6-(1-isopropyl-6-oxo-1,6-dihydro-3-pyridyl)-2-pyrazinecarboxamide] | 251.7 °C
NC(=O)c1nc(-c2ccc(=O)[nH]c2)c(-c2ccccc2)nc1N (hydrate or solvate) [Example 2, 3-amino-6-(6-oxo-1,6-dihydro-3-pyridyl)-5-phenyl-2-pyrazinecarboxamide] | 215 to 220 °C
CC(C)n1cc(-c2nc(C(N)=O)c(N)nc2-c2ccc(F)cc2)ccc1=O (hydrate or solvate) [Example 19, 3-Amino-5-(4-fluorophenyl)-6-(1-isopropyl-6-oxo-1,6-dihydro-3-pyridyl)-2-pyrazinecarboxamide] | 235.6 °C
CCn1cc(-c2nc(C#N)c(N)nc2-c2ccccc2)ccc1=O [Example 12, 3-Amino-6-(1-ethyl-6-oxo-1,6-dihydro-3-pyridyl)-5-phenyl-2-pyrazinecarbonitrile] | 193 to 199 °C
CC(C)n1cc(-c2nc(C(N)=O)c(N)nc2-c2ccccc2)ccc1=O (hydrate or solvate) [Example 16, 3-amino-6-(1-isopropyl-6-oxo-1,6-dihydro-3-pyridyl)-5-phenyl-2-pyrazinecarboxamide] | 245 °C
CC(C)n1cc(-c2nc(C(N)=O)c(N)nc2-c2ccccc2)ccc1=O [Example 6, 3-Amino-6-(1-isopropyl-6-oxo-1,6-dihydro-3-pyridyl)-5-phenyl-2-pyrazinecarboxamide] | 240 to 245 °C
CCCn1cc(-c2nc(C(N)=O)c(N)nc2-c2ccccc2)ccc1=O [Example 5, 3-Amino-6-(6-oxo-1-propyl-1,6-dihydro-3-pyridyl)-5-phenyl-2-pyrazinecarboxamide] | > 250 °C
CC(C)OC(=O)c1nc(-c2ccc(=O)[nH]c2)c(-c2ccccc2)nc1N [Example 9, isopropyl 3-amino-6-(6-oxo-1,6-dihydro-3-pyridyl)-5-phenyl-2-pyrazinecarboxylate] | 250 to 256 °C
COc1ccc(-c2nc(C(N)=O)c(N)nc2-c2ccccc2)cn1 (hydrate or solvate) [Example 15, 3-amino-6-(6-methoxy-3-pyridyl)-5-phenyl-2-pyrazinecarboxamide] | 208 to 212 °C
COc1ccc(-c2nc(C#N)c(N)nc2-c2ccccc2)cn1 [Example 1, 3-amino-6-(6-methoxy-3-pyridyl)-5-phenyl-2-pyrazinecarbonitrile] | 201 to 205 °C
CC(C)n1cc(-c2nc(C(N)=O)c(N)nc2-c2cccc(Cl)c2)ccc1=O (hydrate or solvate) [Example 21, 3-Amino-5-(3-chlorophenyl)-6-(1-isopropyl-6-oxo-1,6-dihydro-3-pyridyl)-2-pyrazinecarboxamide] | 232.6 °C
CCOC(=O)c1nc(-c2ccc(=O)[nH]c2)c(-c2ccccc2)nc1N [Example 8, Ethyl 3-amino-6-(6-oxo-1,6-dihydro-3-pyridyl)-5-phenyl-2-pyrazinecarboxylate] | 230 to 238 °C
